From patent US10898481B2 (priority 2018, dated 2021)

Assays:
[1] = molecular target: hADORA1/CHO (hA1 expressing) cells (Homo sapiens (Human), UniProt P30542); assay: cell-based; conditions: FLIPR inhibition, 10 μM adenosine, read-out: cAMP & FLIPR IC50 (nM) hA1
[2] = molecular target: hA2b/CHO (Homo sapiens (Human), UniProt P29275); assay: cAMP inhibition assay in hA2b/CHO cells, 10 μM adenosine; assay type: cell-based; conditions: read-out: cAMP & FLIPR IC50 (nM) hA2b;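 further: cells exposed to compound 30 min at 37 °C, then stimulated with adenosine a further 30 min, cAMP read after 60 min at room temperature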
Chain of hA2b/CHO (P29275 whole entry): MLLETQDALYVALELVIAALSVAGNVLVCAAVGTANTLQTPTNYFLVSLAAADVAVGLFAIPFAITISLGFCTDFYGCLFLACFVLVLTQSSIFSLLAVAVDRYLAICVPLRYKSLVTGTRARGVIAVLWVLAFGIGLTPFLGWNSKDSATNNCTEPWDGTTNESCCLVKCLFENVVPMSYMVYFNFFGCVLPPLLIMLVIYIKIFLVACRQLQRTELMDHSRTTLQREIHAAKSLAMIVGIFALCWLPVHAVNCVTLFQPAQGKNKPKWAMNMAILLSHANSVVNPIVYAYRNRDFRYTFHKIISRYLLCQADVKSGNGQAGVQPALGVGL
Method: (§1) hA2a/CHO, hA2b/CHO, hA3/CHO and mA2a/CHO (Genscript) were plated at 5×10^3 cells/well into 384-well polystyrene plates at the day of experiment. Compounds were pre-incubated with cells for 30 min at 37° C., 5% CO2. Then 10 μM adenosine was added to the cells and incubated for 30 min at 37° C., 5% CO2. Detection reagent (CISBIO) was added and the plates were incubated for 60 min at room temperature. The signal was captured by Envision.

[3] = molecular target: mA2a/CHO (Mus musculus (Mouse), UniProt Q60613); assay: cAMP inhibition assay in mA2a/CHO cells, 10 μM adenosine; assay type: cell-based; conditions: read-out: cAMP & FLIPR IC50 (nM) mA2a;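 further: compounds preincubated 30 min at 37 °C before the adenosine challenge, then 30 min further stimulation, readout after 60 min detection reagent incubation at room temperature in 384-well plates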
Chain of mA2a/CHO (Q60613 whole entry): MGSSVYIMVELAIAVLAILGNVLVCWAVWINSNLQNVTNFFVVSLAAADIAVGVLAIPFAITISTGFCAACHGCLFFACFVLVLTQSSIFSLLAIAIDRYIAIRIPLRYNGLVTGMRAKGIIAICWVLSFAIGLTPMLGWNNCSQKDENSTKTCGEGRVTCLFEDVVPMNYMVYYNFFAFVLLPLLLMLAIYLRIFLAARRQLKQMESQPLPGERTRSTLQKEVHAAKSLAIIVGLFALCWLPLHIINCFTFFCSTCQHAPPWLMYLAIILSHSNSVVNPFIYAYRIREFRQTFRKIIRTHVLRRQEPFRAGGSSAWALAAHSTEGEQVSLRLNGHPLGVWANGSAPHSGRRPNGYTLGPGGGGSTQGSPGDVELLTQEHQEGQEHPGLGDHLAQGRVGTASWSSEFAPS
Method: as §1

[4] = molecular target: hA2a/CHO (Homo sapiens (Human), UniProt P29274); assay: cAMP inhibition assay in hA2a/CHO cells, 10 μM adenosine; assay type: cell-based; conditions: read-out: cAMP & FLIPR IC50 (nM) hA2a;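 further: compounds added to cells 30 min ahead of adenosine, then a further 30 min at 37 °C with adenosine before cAMP detection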
Chain of hA2a/CHO (P29274 whole entry): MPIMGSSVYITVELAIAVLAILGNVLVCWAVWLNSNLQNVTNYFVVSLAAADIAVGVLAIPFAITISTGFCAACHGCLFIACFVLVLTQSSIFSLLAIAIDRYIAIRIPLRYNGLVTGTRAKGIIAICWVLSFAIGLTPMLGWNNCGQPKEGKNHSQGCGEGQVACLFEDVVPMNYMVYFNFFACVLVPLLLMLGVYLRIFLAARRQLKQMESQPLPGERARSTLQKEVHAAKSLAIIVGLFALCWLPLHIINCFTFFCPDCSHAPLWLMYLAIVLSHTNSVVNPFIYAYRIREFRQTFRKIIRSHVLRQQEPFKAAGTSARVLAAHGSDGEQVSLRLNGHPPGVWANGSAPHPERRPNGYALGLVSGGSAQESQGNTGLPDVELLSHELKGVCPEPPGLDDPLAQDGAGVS
Method: as §1

Chain of hADORA1/CHO (hA1 expressing) cells (P30542 whole entry): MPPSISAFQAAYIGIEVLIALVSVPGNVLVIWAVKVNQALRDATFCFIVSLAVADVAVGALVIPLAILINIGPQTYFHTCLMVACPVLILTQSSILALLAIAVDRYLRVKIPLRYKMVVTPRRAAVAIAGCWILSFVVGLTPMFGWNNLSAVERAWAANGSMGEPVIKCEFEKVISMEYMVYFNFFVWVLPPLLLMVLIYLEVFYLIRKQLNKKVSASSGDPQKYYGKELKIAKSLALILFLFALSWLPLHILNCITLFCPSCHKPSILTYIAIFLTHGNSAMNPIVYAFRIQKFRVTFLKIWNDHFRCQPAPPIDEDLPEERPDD

Structure (SMILES)	IC50 [1]	IC50 [2]	IC50 [3]	IC50 [4]
CCc1cnn2ccc(-c3nc(C(=O)NC[C@H]4CCCN4C)c(N)nc3-c3ncco3)cc12 [Example 128, (R)-3-amino-6-(3-ethylpyrazolo[1,5-a]pyridin-5-yl)-N-((1-methylpyrrolidin-2-yl)methyl)-5-(oxazol-2-yl)pyrazine-2-carboxamide]	10000 nM	≥ 10000 nM	410 nM	63 nM
CCc1cnn2ccc(-c3nc(C(=O)NC[C@@H]4CCCN4C)c(N)nc3-c3ncco3)cc12 [Example 129, (S)-3-amino-6-(3-ethylpyrazolo[1,5-a]pyridin-5-yl)-N-((1-methylpyrrolidin-2-yl)methyl)-5-(oxazol-2-yl)pyrazine-2-carboxamide]	10000 nM	≥ 10000 nM	944 nM	140 nM
CN1CCC[C@H]1CNC(=O)c1nc(-c2ccc3ncn(C)c3c2)c(-n2nccn2)nc1N [Example 130, 3-amino-6-(1-methyl-1H-1,3-benzodiazol-6-yl)-N-[[(2S)-1-methylpyrrolidin-2-yl]methyl]-5-(2H-1,2,3-triazol-2-yl)pyrazine-2-carboxamide]	10000 nM	≥ 10000 nM	2800 nM	295 nM
CN1CCC[C@@H]1CNC(=O)c1nc(-c2ccc3ncn(C)c3c2)c(-n2nccn2)nc1N [Example 131, (R)-3-amino-6-(1-methyl-1H-benzo[d]imidazol-6-yl)-N-((1-methylpyrrolidin-2-yl)methyl)-5-(2H-1,2,3-triazol-2-yl)pyrazine-2-carboxamide]	10000 nM	≥ 10000 nM	2700 nM	332 nM
CCNC(=O)c1nc(-c2ccc3ncc(C)n3c2)c(-c2ncco2)nc1N [Example 132, 3-amino-N-ethyl-6-(3-methylimidazo [1,2-a]pyridin-6-yl)-5-(oxazol-2-yl) pyrazine-2-carboxamide]	10000 nM	258 nM	65 nM	13 nM
Cc1cnc2ccc(-c3nc(C(=O)NCCC#N)c(N)nc3-c3ncco3)cn12 [Example 142, 3-amino-N-(2-cyanoethyl)-6-(3-methyl-imidazo[1,2-a]pyridin-6-yl)-5-(oxazol-2-yl)pyrazine-2-carboxamide]	10000 nM	319 nM	73 nM	10 nM
Cc1cnc2ccc(-c3nc(C(=O)NCCC(=O)N(C)C)c(N)nc3-c3ncco3)cn12 [Example 143, 3-amino-N-(3-(dimethylamino)-3-oxopropyl)-6-(3-methylimidazo[1,2-a]pyridin-6-yl)-5-(oxazol-2-yl)pyrazine-2-carboxamide]	180 nM	162 nM	12 nM	1.7 nM
Cc1cnc2ccc(-c3nc(C(=O)N[C@@H]4CCN(C)C4)c(N)nc3-c3ccc(F)cc3)cn12 [Example 144, (R)-3-amino-5-(4-fluorophenyl)-6-(3-methylimidazo[1,2-a]pyridin-6-yl)-N-(1-methylpyrrolidin-3-yl)pyrazine-2-carboxamide]	10000 nM	1410 nM	61 nM	4.6 nM
Cc1cnc2ccc(-c3nc(C(=O)NC[C@@H](C)O)c(N)nc3-c3ncco3)cn12 [Example 145, (R)-3-amino-N-(2-hydroxypropyl)-6-(3-methylimidazo[1,2-a]pyridin-6-yl)-5-(oxazol-2-yl)pyrazine-2-carboxamide]	10000 nM	789 nM	205 nM	32 nM
Cc1cnc2ccc(-c3nc(C(=O)NC[C@H](C)O)c(N)nc3-c3ncco3)cn12 [Example 146, (S)-3-amino-N-(2-hydroxypropyl)-6-(3-methylimidazo[1,2-a]pyridin-6-yl)-5-(oxazol-2-yl)pyrazine-2-carboxamide]	10000 nM	256 nM	101 nM	8.5 nM
Cc1cnc2ccc(-c3nc(C(=O)NCCOC(F)(F)F)c(N)nc3-c3ncco3)cn12 [Example 148, 3-amino-6-(3-methylimidazo[1,2-a]pyridin-6-yl)-5-(oxazol-2-yl)-N-(2-(trifluoromethoxy)ethyl)pyrazine-2-carboxamide]	69 nM	99 nM	1.1 nM	0.5 nM
COCCCNC(=O)c1nc(-c2ccc3ncc(C)n3c2)c(-c2ncco2)nc1N [Example 149, 3-amino-N-(3-methoxypropyl)-6-[3-methylimidazo[1,2-a]pyridin-6-yl]-5-(1,3-oxazol-2-yl)pyrazine-2-carboxamide]	1560 nM	85 nM	7.8 nM	1.5 nM
Cc1cnc2ccc(-c3nc(C(=O)NCCS(C)(=O)=O)c(N)nc3-c3ccc(F)cc3)cn12 [Example 150, 3-amino-5-(4-fluorophenyl)-6-(3-methylimidazo[1,2-a]pyridin-6-yl)-N-(2-(methylsulfonyl)ethyl)pyrazine-2-carboxamide]	26 nM	108 nM	6.5 nM	3.4 nM
CO[C@H]1C[C@H](NC(=O)c2nc(-c3ccc4ncc(C)n4c3)c(-c3ncco3)nc2N)C1 [Example 151, 3-amino-N-((1r,3r)-3-methoxycyclobutyl)-6-(3-methylimidazo [1,2-a]pyridin-6-yl)-5-(oxazol-2-yl) pyrazine-2-carboxamide]	10000 nM	193 nM	12 nM	0.8 nM
CO[C@H]1C[C@@H](NC(=O)c2nc(-c3ccc4ncc(C)n4c3)c(-c3ncco3)nc2N)C1 [Example 152, 3-amino-N-((1s,3s)-3-methoxycyclobutyl)-6-(3-methylimidazo [1,2-a]pyridin-6-yl)-5-(oxazol-2-yl)pyrazine-2-carboxamide]	10000 nM	369 nM	43 nM	5.1 nM
Cc1cnc2ccc(-c3nc(C(=O)NCCN(C)C)c(N)nc3-c3ncco3)cn12 [Example 153, 3-amino-N-(2-(dimethylamino)ethyl)-6-(3-methylimidazo[1,2-a]pyridin-6-yl)-5-(oxazol-2-yl)pyrazine-2-carboxamide]	10000 nM	592 nM	120 nM	19 nM
Cc1cnc2ccc(-c3nc(C(=O)NCC4(N(C)C)CC4)c(N)nc3-c3ccc(F)cc3)cn12 [Example 154, 3-amino-N-[[1-(dimethylamino)cyclopropyl]methyl]-5-(4-fluorophenyl)-6-[3-methylimidazo[1,2-a]pyridin-6-yl]pyrazine-2-carboxamide]	10000 nM	1150 nM	121 nM	11 nM
Cc1cnc2ccc(-c3nc(C(=O)NCC4CC4)c(N)nc3-c3ncco3)cn12 [Example 155, 3-amino-N-(cyclopropylmethyl)-6-(3-methylimidazo[1,2-a]pyridin-6-yl)-5-(oxazol-2-yl)pyrazine-2-carboxamide]	3650 nM	188 nM	12 nM	0.6 nM
Cc1cnc2ccc(-c3nc(CNC(=O)[C@@H]4CCCN4C)c(N)nc3-c3ccc(F)cc3)cn12 [Example 156, (2S)—N-[[3-amino-5-(4-fluorophenyl)-6-[3-methylimidazo[1,2-a]pyridin-6-yl]pyrazin-2-yl]methyl]-1-methylpyrrolidine-2-carboxamide]	83 nM	1200 nM	41 nM	4.4 nM
